Measurements taken from paper PMC11440839, “DOTA Conjugate of Bisphosphonate and PSMA-Inhibitor: A Promising Combination for Therapy of Prostate Cancer Related Bone Metastases” (Frontiers in Nuclear Medicine, 2022).

Target: T1, PSMA (prostate-specific membrane antigen); glutamate carboxypeptidase II (GCPII) (Homo sapiens, UniProt Q04609)
T1 construct: gene FOLH1; native full-length type II transmembrane protein on intact LNCaP cells; 750 amino acids
Assay: competitive radioligand assay on LNCaP cells
Type: cell-based
Conditions: competition with 0.75 nM [68Ga]Ga-PSMA-10, 45 min
Description: competitive radioligand assay on LNCaP cells on PSMA (prostate-specific membrane antigen); glutamate carboxypeptidase II (GCPII)

T1 sequence (Q04609 whole entry): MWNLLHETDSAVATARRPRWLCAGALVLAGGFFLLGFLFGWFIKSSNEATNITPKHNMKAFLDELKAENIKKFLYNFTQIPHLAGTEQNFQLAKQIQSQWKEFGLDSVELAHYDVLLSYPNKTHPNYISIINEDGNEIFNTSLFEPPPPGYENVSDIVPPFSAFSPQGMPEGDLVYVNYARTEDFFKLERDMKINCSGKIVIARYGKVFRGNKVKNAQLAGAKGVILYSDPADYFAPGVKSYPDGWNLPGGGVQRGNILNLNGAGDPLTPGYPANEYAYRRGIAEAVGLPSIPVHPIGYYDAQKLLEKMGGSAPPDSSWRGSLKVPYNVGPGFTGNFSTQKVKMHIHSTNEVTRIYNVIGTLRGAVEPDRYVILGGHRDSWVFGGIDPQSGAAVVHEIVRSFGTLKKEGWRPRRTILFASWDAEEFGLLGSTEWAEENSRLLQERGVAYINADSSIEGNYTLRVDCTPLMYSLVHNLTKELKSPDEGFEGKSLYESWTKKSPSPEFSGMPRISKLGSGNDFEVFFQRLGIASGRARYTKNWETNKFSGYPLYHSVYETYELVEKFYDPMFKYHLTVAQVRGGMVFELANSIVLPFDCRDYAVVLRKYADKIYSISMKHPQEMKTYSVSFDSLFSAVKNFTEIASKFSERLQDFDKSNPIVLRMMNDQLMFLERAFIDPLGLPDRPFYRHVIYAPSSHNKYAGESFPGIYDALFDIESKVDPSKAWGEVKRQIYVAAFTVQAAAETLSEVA

SMILES	Ki (reference compound, footnote: IC50 values can be found in the earlier paper of the same first author (ref 48), cited from earlier work)	Ki (metal-free ligand)
O=C(O)CC[C@H](NC(=O)N[C@@H](CCCCNC(=O)[C@H](Cc1ccc2ccccc2c1)NC(=O)[C@H]1CC[C@H](CNC(=O)CN2CCN(CC(=O)O)CCN(CC(=O)O)CCN(CC(=O)O)CC2)CC1)C(=O)O)C(=O)O [PSMA-617]	0.0069 ± 0.0013 µM	
NCCCC[C@H](NC(=O)CN1CCN(CC(=O)O)CCN(CC(=O)O)CCN(CC(=O)O)CC1)C(=O)NC[C@H]1CC[C@H](C(=O)N[C@@H](Cc2ccc3ccccc3c2)C(=O)NCCCC[C@H](NC(=O)N[C@@H](CCC(=O)O)C(=O)O)C(=O)O)CC1 [compound 12, DOTA-L-Lys-PSMA-617]		0.0197 ± 0.0033 µM
O=C(O)CC[C@H](NC(=O)N[C@@H](CCCCNC(=O)[C@H](Cc1ccc2ccccc2c1)NC(=O)[C@H]1CC[C@H](CNC(=O)[C@H](CCCCNc2c(NCCC(O)(P(=O)(O)O)P(=O)(O)O)c(=O)c2=O)NC(=O)CN2CCN(CC(=O)O)CCN(CC(=O)O)CCN(CC(=O)O)CC2)CC1)C(=O)O)C(=O)O [compound 13, DOTA-L-Lys(SA.Pam)-PSMA-617]		0.0526 ± 0.0035 µM
